Where a name gives a salt, the structure may show the parent alone. Activity calls are given as the source filed them.
Tests used:
cells [1] = format: functional
[2] = THP-1 cell cytotoxicity, dose response, cytotoxicity control for non-replicating M. tuberculosis project (AID 489025); format: functional
Vero [3] = test: cells; format: functional; details: Chlorocebus sabaeus
[4] = target: Voltage-dependent T-type calcium channel subunit alpha-1H (Homo sapiens, UniProt O95180); format: functional;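 also: channel activity triggered by adding a high calcium stimulation buffer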
Sequence of Voltage-dependent T-type calcium channel subunit alpha-1H (O95180 whole entry): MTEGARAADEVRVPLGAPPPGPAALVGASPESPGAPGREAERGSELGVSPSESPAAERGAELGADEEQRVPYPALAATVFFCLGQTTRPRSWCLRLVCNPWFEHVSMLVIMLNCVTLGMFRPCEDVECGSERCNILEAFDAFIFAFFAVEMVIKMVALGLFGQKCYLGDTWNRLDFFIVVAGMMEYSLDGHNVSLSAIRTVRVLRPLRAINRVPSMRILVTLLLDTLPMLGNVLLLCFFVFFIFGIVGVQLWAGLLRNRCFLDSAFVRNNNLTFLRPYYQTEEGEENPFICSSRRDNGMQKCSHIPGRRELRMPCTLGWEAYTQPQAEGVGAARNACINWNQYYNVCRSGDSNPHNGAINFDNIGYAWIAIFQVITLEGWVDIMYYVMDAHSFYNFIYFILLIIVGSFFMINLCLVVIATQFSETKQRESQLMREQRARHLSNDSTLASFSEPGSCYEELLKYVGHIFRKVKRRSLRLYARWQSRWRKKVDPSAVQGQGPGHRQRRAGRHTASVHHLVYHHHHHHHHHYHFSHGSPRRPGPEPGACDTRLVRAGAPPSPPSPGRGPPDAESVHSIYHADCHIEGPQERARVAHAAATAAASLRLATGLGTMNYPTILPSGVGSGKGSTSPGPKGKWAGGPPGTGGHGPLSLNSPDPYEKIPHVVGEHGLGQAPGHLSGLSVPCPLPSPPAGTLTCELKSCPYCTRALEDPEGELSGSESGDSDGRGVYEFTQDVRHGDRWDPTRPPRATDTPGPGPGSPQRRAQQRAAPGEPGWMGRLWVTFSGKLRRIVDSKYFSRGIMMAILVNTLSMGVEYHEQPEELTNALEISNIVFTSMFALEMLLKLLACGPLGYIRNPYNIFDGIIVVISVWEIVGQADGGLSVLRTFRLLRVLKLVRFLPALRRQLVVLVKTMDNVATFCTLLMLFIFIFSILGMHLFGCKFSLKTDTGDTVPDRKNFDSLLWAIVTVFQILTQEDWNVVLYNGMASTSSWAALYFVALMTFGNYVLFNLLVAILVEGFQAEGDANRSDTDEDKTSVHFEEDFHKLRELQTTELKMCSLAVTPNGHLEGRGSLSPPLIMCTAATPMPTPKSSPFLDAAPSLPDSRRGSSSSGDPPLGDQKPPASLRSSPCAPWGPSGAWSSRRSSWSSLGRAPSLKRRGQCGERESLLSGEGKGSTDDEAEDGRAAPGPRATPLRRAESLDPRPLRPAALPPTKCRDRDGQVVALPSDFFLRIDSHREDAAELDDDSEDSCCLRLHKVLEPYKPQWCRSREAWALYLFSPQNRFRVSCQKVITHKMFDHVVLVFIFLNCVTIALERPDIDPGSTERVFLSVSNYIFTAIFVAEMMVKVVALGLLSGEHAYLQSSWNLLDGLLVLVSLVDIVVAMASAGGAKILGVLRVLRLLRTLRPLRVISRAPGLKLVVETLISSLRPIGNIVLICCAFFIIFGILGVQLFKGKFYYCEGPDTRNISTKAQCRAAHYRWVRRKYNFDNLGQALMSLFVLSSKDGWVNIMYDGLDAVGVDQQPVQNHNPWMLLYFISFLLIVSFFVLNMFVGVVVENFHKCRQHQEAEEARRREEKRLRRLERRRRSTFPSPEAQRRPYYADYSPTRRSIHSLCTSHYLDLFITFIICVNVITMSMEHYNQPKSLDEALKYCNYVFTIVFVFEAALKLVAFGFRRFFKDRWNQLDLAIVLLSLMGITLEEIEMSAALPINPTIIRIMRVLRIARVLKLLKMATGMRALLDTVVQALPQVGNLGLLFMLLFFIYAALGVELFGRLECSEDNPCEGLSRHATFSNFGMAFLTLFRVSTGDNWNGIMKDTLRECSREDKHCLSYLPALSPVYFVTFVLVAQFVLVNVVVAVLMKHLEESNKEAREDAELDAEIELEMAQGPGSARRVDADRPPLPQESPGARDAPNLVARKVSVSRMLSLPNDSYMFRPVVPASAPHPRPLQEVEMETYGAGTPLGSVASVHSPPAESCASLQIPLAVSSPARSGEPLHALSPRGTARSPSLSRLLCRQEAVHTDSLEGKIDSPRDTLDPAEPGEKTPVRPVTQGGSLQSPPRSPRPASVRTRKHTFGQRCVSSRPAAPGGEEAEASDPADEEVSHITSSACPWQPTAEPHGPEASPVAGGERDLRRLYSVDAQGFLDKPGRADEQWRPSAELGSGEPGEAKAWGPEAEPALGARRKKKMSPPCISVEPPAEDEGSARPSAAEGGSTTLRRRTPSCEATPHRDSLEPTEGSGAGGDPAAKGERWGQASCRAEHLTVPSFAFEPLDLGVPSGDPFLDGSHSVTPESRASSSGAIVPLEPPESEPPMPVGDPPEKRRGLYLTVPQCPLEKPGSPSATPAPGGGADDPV

[5] = target: T1, Short transient receptor potential channel 4 (Mus musculus, UniProt Q9QUQ5); test: block of DAMGO-driven TRPC4 calcium entry – cell-based, HEK293 TRPC4/mu-opioid, Fluo-4 calcium, dose response (AID 434942); format: functional;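 also: potency of inhibitors blocking the TRPC4 calcium response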
T1 sequence (Q9QUQ5 whole entry): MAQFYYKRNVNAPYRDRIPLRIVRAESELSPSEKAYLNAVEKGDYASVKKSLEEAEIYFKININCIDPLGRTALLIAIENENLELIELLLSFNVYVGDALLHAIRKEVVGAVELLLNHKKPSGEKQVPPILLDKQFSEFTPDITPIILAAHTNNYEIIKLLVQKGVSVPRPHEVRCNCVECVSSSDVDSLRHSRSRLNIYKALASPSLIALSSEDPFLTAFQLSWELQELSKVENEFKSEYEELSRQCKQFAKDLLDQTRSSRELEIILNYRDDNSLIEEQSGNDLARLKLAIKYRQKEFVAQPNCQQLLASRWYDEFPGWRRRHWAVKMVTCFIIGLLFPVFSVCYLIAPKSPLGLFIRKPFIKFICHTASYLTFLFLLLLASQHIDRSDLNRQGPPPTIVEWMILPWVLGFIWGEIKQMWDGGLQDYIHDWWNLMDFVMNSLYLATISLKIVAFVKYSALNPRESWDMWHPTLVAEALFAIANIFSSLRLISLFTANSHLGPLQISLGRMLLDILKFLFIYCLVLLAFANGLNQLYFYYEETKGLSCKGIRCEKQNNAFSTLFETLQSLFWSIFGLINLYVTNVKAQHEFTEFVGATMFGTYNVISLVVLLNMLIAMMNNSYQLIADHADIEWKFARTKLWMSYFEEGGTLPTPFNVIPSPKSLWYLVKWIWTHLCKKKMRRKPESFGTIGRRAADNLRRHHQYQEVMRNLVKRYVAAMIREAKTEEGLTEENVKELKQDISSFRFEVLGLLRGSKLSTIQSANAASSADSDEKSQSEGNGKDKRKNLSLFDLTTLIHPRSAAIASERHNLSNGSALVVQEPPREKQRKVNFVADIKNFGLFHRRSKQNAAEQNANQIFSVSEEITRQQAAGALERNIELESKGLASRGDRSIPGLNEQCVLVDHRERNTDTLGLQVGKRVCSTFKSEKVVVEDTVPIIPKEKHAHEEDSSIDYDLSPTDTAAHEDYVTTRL

[6] = HEK-293T cell viability reduction – luminescence, B-cell screen hits, cytotoxicity control for BCR NF-kB inhibitor project, dose response (AID 489021); format: functional, cell-based;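 also: HEK-293T cells carrying an NF-kB luciferase reporter; cells exposed to compound for about 14 hours before viability readout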
[7] = viability of uninfected HEp-2 cells – cell-based, HTS, cytotoxicity control for RSV inhibitor project, dose response (AID 2410); format: functional; details: human respiratory syncytial virus
Vero [8] = test: cells; format: functional, cell-based; details: Chlorocebus sabaeus
[9] = target: T2, Replicative DNA helicase DnaB (Mycobacterium tuberculosis, UniProt P9WMR3); test: DnaB intein splicing inhibitors, dose response, biochemical, cell-free fluorescence (AID 449749); format: functional
T2 sequence (P9WMR3 whole entry): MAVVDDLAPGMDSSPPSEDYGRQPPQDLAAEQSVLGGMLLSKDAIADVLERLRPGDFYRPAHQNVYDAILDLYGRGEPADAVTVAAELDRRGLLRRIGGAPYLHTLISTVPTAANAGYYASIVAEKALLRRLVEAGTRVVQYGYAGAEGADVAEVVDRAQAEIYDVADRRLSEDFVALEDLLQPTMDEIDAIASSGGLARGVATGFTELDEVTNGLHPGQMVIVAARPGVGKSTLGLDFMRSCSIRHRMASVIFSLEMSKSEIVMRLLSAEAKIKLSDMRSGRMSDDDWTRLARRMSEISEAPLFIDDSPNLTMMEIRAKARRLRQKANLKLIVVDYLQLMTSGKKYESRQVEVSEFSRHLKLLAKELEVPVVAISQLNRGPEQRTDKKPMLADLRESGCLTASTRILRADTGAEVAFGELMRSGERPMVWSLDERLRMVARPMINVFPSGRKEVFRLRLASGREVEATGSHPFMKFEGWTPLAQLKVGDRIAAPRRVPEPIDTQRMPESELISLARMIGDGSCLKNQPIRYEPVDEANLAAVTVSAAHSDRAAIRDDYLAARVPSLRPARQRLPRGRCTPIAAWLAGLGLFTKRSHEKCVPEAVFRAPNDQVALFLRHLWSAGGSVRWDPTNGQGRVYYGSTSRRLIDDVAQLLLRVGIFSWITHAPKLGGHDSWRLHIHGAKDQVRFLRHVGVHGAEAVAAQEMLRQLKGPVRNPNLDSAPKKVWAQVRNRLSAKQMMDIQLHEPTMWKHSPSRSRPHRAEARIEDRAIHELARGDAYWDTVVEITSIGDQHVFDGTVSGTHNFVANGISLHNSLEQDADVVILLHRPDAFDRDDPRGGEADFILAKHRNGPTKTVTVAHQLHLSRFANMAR

cells [10] = test: cells
Protein RecA = target: T3, Protein RecA (Mycobacterium tuberculosis, UniProt P9WHJ3); test: Fluorescence Cell-Free Homogeneous Dose Retest to Identify Inhibitors of RecA-Intein Splicing Activity. [Related pubchem assays (depositor defined):AID2097, AID2223, AID489010, AID492950]; format: functional
T3 sequence (P9WHJ3 whole entry): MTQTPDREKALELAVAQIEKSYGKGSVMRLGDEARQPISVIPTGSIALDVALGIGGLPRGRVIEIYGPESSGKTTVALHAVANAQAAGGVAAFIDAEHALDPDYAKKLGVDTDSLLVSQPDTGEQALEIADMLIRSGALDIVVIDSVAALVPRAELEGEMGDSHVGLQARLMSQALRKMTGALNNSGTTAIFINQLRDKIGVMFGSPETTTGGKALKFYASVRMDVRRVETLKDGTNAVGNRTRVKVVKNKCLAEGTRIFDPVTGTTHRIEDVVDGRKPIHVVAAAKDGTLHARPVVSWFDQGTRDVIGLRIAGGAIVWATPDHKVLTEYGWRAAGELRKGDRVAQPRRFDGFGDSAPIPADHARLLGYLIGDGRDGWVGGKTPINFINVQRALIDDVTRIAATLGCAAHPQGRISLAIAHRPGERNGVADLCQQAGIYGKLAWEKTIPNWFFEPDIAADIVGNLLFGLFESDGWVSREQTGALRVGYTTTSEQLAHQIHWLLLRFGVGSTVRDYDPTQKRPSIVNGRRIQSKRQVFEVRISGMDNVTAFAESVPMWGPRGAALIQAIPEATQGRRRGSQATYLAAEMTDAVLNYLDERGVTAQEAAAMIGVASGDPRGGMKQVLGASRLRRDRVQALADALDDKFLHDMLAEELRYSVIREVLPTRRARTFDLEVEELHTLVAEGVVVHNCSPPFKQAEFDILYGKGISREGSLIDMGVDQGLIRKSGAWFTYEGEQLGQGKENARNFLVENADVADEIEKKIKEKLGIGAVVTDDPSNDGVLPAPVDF

[11] = target: Eukaryotic translation initiation factor 4E (Mus musculus, UniProt P63073); test: blockers of eIF4G binding by eIF4E – biochemical, TR-FRET, dose response (AID 855); format: functional;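 also: potency for disrupting eIF4E binding to eIF4GI seen as loss of FRET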
Sequence of Eukaryotic translation initiation factor 4E (P63073 whole entry): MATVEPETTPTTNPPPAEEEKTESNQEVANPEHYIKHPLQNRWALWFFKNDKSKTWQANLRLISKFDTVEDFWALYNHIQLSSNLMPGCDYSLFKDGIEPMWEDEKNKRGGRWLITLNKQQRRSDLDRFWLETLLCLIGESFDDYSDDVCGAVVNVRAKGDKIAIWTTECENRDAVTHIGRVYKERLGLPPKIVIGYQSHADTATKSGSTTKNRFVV

[12] = target: T4, Heat shock factor protein 1 (Mus musculus, UniProt P38532); test: decrease of HSF1-responsive luciferase luminescence – cell-based, NIH3T3, dose retest, confirmation (AID 2382); format: functional;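 also: NIH3T3 fibroblasts with HSF1-driven luciferase reporter stressed by proteasome inhibitor MG132; luminescence from HSF1-driven luciferase expression after 8 hours of MG132 stress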
T4 sequence (P38532 whole entry): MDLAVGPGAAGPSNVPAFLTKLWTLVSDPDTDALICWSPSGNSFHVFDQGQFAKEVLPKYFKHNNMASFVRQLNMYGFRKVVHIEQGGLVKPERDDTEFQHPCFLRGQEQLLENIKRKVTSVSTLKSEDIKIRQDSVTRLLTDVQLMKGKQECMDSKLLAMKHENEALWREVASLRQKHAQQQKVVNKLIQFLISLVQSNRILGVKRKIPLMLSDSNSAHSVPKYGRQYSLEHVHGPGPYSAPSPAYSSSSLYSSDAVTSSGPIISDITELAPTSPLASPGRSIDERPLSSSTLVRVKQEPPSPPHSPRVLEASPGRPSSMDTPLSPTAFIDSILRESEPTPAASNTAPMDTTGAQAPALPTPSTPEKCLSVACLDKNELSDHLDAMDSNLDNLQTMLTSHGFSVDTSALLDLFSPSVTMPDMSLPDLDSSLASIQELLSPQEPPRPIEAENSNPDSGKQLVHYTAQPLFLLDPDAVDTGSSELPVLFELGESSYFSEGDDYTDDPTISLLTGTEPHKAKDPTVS

[13] = target: T5, Microphthalmia-associated transcription factor (Homo sapiens, UniProt O75030); test: reducers of TRPM1 reporter luminescence, concentration series – cell-based, SK-MEL-5, cherry-picked, set 3, MITF inhibitor project, dose response (AID 493073); format: functional;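 also: SK-MEL-5 melanoma cells with luciferase driven by the MITF target TRPM1 promoter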
T5 sequence (O75030 whole entry): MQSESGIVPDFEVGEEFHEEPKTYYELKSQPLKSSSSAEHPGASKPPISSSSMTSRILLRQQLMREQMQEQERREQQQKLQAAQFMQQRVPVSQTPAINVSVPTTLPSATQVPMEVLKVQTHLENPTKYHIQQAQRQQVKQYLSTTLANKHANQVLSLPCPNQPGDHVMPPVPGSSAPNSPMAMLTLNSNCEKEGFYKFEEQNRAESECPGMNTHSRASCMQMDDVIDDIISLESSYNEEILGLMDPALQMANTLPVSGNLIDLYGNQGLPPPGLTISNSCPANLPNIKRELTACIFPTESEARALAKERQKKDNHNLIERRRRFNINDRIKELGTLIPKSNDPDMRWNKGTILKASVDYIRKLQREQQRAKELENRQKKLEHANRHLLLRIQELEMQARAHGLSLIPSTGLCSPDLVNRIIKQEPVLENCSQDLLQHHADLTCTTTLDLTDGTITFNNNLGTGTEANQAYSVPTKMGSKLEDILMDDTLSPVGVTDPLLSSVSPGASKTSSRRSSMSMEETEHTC

CN(C)CC/C=C1\c2cc(Cl)ccc2Sc2cc(F)c(F)cc21
IC50 (cells [1]): 18.2 µM (active) | CC50 [2]: 38.8 µM (active) | CC50 (Vero [3]): > 25 µM (active)

CSc1cccc(NC(=O)CSc2ccccc2)c1
EC50 [4]: 9.9 µM (active)

Cc1cc(-c2csc3ncnc(N4CCN(C)CC4)c23)cc(C)c1C
EC50 [5]: 1.19 µM (active)

COc1cc(CNC2CCCC2)c(Br)cc1OCc1ccccc1
EC50 [5]: 0.237 µM (active)

COc1ccc(/C=C2\SC(=O)N(CCCC(=O)Nc3ccc(C(=O)O)cc3)C2=O)cc1OC
IC50 [6]: > 80 µM (inactive)

CC(=O)NC1=C(Nc2ccc(N(C)C)cc2)C(=O)c2ccccc2C1=O
CC50 [7]: 15.3 µM (active) | IC50 (Vero [8]): 24.7 µM (active) | CC50 (Vero [3]): > 25 µM (active) | AC50 [9]: 34.5 µM (active) | IC50 (cells [10]): 17.5 µM (active) | EC50 (Protein RecA): 46.6 µM (active)

O=C(CSc1nnc(Cc2cccs2)n1-c1ccccc1)NCc1ccc2c(c1)OCO2
EC50 [4]: 8.23 µM (active)

CCCCOc1cc(C(=O)NCCN(CC)CC)c2ccccc2n1 [DIBUCAINE HYDROCHLORIDE]
IC50 [11]: 50 µM (inactive)

CCN1C(=O)c2cccc3c(S(=O)(=O)Nc4ccccn4)ccc1c23
IC50 [6]: > 80 µM (inactive)

COc1ccccc1N1CCN(CC(C)N(C(=O)C2CCCCC2)c2ccccn2)CC1 (stereo not given)
EC50 [5]: 0.335 µM (active)

C#CCSc1nnc(-c2ccc(C)cc2)o1
IC50 (cells [1]): 26.4 µM (active) | CC50 [2]: > 40 µM (active)

O=C1NC(=O)C(CCc2ccncc2)(CCc2ccncc2)C(=O)N1Cc1ccccc1
IC50 [11]: 50 µM (inactive) | EC50 [12]: > 195 µM (not active)

COc1ccc(-c2nnc(OCc3nc4ccccc4n3C)c3ccccc23)cc1
CC50 [7]: 38.6 µM (active) | IC50 (cells [10]): 14.7 µM (active)

CCOc1ccccc1CNC(=O)c1cc2oc3ccccc3c2n1C
CC50 [7]: 18.7 µM (active) | IC50 (Vero [8]): 4.91 µM (active) | IC50 (cells [10]): 9.25 µM (active)

C=CCOc1ccc(/C=C2\SC(=S)N(CCC(=O)O)C2=O)cc1
AC50 [13]: 0.337 µM (active) | IC50 [6]: > 80 µM (inactive) | EC50 [12]: 5.69 µM (active)

O=C(Nc1ccc(F)cc1)c1cc(S(=O)(=O)Nc2ccc(F)cc2)cs1
EC50 [4]: 2.88 µM (active)
